# Several values for one entry are separate records, joined by “and”; a condition that tells them apart may be missing. Identical values can stand only once.
# How the values were obtained:
# [1] = molecular target: human BACE-1 (Homo sapiens, UniProt P56817); assay: BACE Assay (CEREP); assay type: biochemical; details: recombinant enzyme, 60 min at 37° C., pH 4.5; for inhibition at 0.3 µM: test compound 0.3 μM
# Description: The test compound, reference compound or water (control) were added to a buffer containing 0.09 M sodium acetate (pH 4.5) and 0.25 μg BACE-1. Compound interference with the fluorimetric detection method due to autofluorescence was then checked by measurements at the wavelengths defined to evaluate the enzyme activity. […] For control basal measurement, the substrate was omitted from the reaction mixture. […] The standard inhibitory reference compound was OM99-2, which was tested in each experiment at several concentrations to obtain an inhibition curve from which its IC50 value was calculated.
# [2] = molecular target: T1, β-secretase(BACE) (Homo sapiens, UniProt P56817); assay: BACE Assay-2 (FS1 substrate, IC50 and Ki); assay type: biochemical; details: procedure of Example 159, FS1 substrate; for Ki: read-out: Ki μM (159)
# T1 construct: purchased Panvera
# T1 sequence (P56817 46-501): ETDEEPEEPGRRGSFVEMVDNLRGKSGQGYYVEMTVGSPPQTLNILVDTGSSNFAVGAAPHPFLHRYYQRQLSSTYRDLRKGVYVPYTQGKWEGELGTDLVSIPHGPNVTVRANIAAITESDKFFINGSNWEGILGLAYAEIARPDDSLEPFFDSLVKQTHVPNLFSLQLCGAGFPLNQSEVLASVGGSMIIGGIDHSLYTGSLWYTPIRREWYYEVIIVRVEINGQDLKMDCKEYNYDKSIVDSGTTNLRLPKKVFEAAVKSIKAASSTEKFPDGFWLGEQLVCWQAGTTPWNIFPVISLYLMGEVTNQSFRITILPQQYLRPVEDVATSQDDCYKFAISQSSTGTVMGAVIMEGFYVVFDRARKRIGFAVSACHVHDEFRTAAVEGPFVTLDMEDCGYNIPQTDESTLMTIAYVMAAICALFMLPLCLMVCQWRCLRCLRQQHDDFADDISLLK
# [3] = molecular target: T1, β-secretase(BACE); assay: BACE FS1% Inhibition Assay; assay type: biochemical; details: FS1 substrate; for inhibition at 3 µM: 3 μM test compound; for inhibition at 0.3 µM: 0.3 μM test compound; for inhibition at 1 µM: 1 μM test compound
# Outline: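 Percent inhibition at each tested concentration, referenced to enzyme-free blank and vehicle-only positive control. Reaction: compound and BACE (4 μg/mL working stock) mixed 20 min at room temperature before FS1 substrate (300 μg/mL working stock), then 1 h at room temperature.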
# [4] = molecular target: T1, β-secretase(BACE); assay: BACE Assay-1 (MCA-substrate, IC50); assay type: biochemical; details: procedure of Example 158; read-out: IC50 μM (158)
# Outline: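 Human BACE (work solution 10 μg/mL) with MCA-peptide substrate (stock 2.0 mg/mL) in 0.05 M citrate buffer, pH 5.0, with PEG8000. Fluorescence read at T0 and T60; compounds tested at multiple concentrations and IC50 calculated from these readings.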
# [5] = molecular target: T1, β-secretase(BACE); assay: BACE % Inhibition Assay ((Aedens)-[…]-(Dabcyl K-amide) substrate); assay type: biochemical; details: % error ±10%; for inhibition at 3 µM / inhibition at 10 µM: read-out: % Inhibition; for inhibition at 10 µM: 10 μM test compound
# Description: The substrate stock solution was prepared in DMSO as a 10 mg/mL solution. The substrate working solution was prepared by diluting the 10 mg/mL stock solution with substrate assay buffer to a final concentration of 300 μg/mL. The β-secretase (BACE) working solution was prepared by diluting a 0.83 mg/mL BACE stock solution with enzyme assay buffer to a final concentration of 4 μg/mL.
# Test compounds were dissolved in DMSO to 10 mM.
# The screening procedure for this assay was as follows: 15 μL of BACE working solution was pipetted into each well of a 96-well plate. To each well was then pipetted 2 μL of test compound at the selected concentration. Test compound and BACE were then mixed with a pipettor and incubated for 20 min at room temperature. To each well was then added 10 μL of the substrate working solution. The plates were then incubated for 1 hour at room temperature.
# The procedure for the blank was as follows. 15 μL of assay buffer was pipetted into each well to be used as a blank control. To each well was then added 2 μL of vehicle and 10 μL of substrate working solution. The plates were then incubated for 1 hour at room temperature.
# The procedure for the positive control was as follows: 15 μl of BACE working solution was pipetted into each well to be used as a positive control. To each well was then pipetted 2 μL of vehicle. Vehicle and BACE were then mixed with a pipettor and incubated for 20 min at room temperature. To each well was then added 10 μL of the substrate working solution. The plates were then incubated for 1 hour at room temperature.
# For test compounds, % inhibition was determined at each concentration as follows: […]
# [6] = read-out: % Inhibition (FS) 3 μM
# [7] = read-out: % Inhibition (FS) 0.3 μM
# [8] = read-out: % Inhibition (FS) 1 μM
# human BACE-1, sequence (P56817 46-501): as above
SMILES,IC50 [1],inhibition at 0.3 µM [1],Ki [2],IC50 [2],IC50 [4],inhibition at 3 µM ([5]; 3 μM test compound),inhibition at 10 µM [5],further results
NC1=Nc2ccc(Oc3ccccc3)cc2CN1[C@@H](CCC(=O)N(Cc1cnc[nH]1)C1CCCCC1)C1CCCCC1 [Compound 796],190 nM,,,,,,,
"NC1=Nc2ccc(Oc3ccccc3)cc2CN1[C@@H](CCC(=O)N(CCO[C@@H]1O[C@H](CO)[C@@H](O)[C@H](O)[C@H]1O)C1CCCCC1)C1CCCCC1 [Compound 798, 4-(2-Amino-6-phenoxy-4H-quinazolin-3-yl)-4S,N-dicyclohexyl-N-[2R-(3R,4S,5S-trihydroxy-6R-hydroxymethyl-tetrahydro-pyran-2-yloxy)-ethyl]-butyramide]",74 nM,95%,,,,,,
NC1=Nc2ccc(Oc3ccccc3)cc2CN1CCNC(=O)c1ccccc1 [Compound 154],> 1000 nM,,0.61 µM,,,,,"inhibition at 3 µM [3, 6]: 56%; inhibition at 10 µM ([3]; 10 μM test compound, read-out: % Inhibition (FS) 10 μM): 79%"
"NC1=Nc2ccc(Oc3ccccc3)cc2CN1[C@@H](CCC(=O)N1C2CCCCC2C[C@H]1C(=O)O)C1CCCCC1 (stereo partly drawn) [Compound 795, 1-[4-(2-Amino-6-phenoxy-4H-quinazolin-3-yl)-4S-cyclohexyl-butyryl]-octahydro-indole-2S-carboxylic acid]",150 nM,98%,,,,,,
NC1=Nc2ccc(Oc3ccccc3)cc2CN1[C@@H](CCC(=O)N(Cc1nc[nH]n1)C1CCCCC1)C1CCCCC1 [Compound 790],93 nM,98%,,,,,,
NC1=Nc2ccc(Oc3ccccc3)cc2CN1[C@@H](CCC(=O)N(Cc1ccncc1)C1CCCCC1)C1CCCCC1 [Compound 789],78 nM,94%,,,,,,inhibition at 0.3 µM ([3]; read-out: % Inhibition (FS)): 80%; inhibition at 1 µM ([3]; read-out: % Inhibition (FS)): 99%; inhibition at 3 µM ([3]; read-out: % Inhibition (FS)): 106%
CN(C(=O)CCN1Cc2cc(C(=O)c3ccccc3)ccc2N=C1N)C1CCCCC1,,,,,,,,melting point: 198.1 °C
NC1=Nc2ccc(Oc3ccccc3)cc2CN1Cc1cccc(C(=O)N(C2CCCCC2)C2CCCCC2)c1 [Compound 98],,,1.1 µM,2.3 µM,0.2 µM,76%,99%,"inhibition at 0.3 µM [3, 7]: 49%; inhibition at 1 µM [3, 8]: 93%; inhibition at 3 µM [3, 6]: 114%"
NC1=Nc2ccc(Oc3ccccc3)cc2CN1[C@@H](CCC(=O)N(Cc1ncc[nH]1)C1CCCCC1)C1CCCCC1 [Compound 788],160 nM,97%,,,,,,inhibition at 0.3 µM ([3]; read-out: % Inhibition (FS)): 110%; inhibition at 1 µM ([3]; read-out: % Inhibition (FS)): 114%; inhibition at 3 µM ([3]; read-out: % Inhibition (FS)): 118%
NC1=Nc2ccc(Oc3ccccc3)cc2CN1CCNC(=O)C1CCCC1 [Compound 112],,,0.59 µM,,0.12 µM,88%,92%,
CCCN1Cc2cc(Oc3cccc(NC(=O)OCc4ccccc4)c3)ccc2N=C1N [Compound 67],,,0.81 µM,3.9 µM,0.68 µM,44%,71%,
CN(C(=O)CCCCN1Cc2cc(C(=O)c3ccccc3)ccc2N=C1N)C1CCCCC1 [Compound 27],,,0.66 µM,3 µM,1.2 µM,63%,81%,
CCCN1Cc2cc(Oc3cccc(NCC4CCCCC4)c3)ccc2N=C1N [Compound 55],,,0.79 µM,2.4 µM,0.28 µM,62%,95%,
CC(=O)OCC1OC(OCCN(C(=O)CCC(C2CCCCC2)N2Cc3cc(Oc4ccccc4)ccc3N=C2N)C2CCCCC2)C(OC(C)=O)C(OC(C)=O)C1OC(C)=O (centres unmarked) [Compound 797],120 nM,95%,,,,,,
CC(C)(C)OC(=O)NCCN1Cc2cc(Oc3ccccc3)ccc2N=C1N [Compound 80],,,0.12 µM,0.94 µM,0.11 µM,61%,80%,
CN(C(=O)c1cccc(CN2Cc3cc(Oc4cccc(NS(=O)(=O)c5ccccc5)c4)ccc3N=C2N)c1)C1CCCCC1 [Compound 110],,,0.4 µM,1.24 µM,0.053 µM,75%,96%,"inhibition at 0.3 µM [3, 7]: < 30%; inhibition at 1 µM [3, 8]: 30%; inhibition at 3 µM [3, 6]: 84%"
"NC1=Nc2ccc(Oc3ccccc3)cc2CN1CCNC(=O)C1CCCCC1 [Compound 111, Cyclohexanecarboxylic acid [2-(2-amino-6-phenoxy-4H-quinazolin-3-yl)-ethyl]-amide]",,,0.082 µM and 0.067 µM,,0.1 µM,,94%,"inhibition at 0.3 µM ([5]; 0.3 μM test compound): 63%; inhibition at 1 µM ([5]; 1 μM test compound): 96%; % Inhibition ([5]; 3 μM test compound, 3 µM): 84% and 115%"
NC1=Nc2ccc(Oc3ccccc3)cc2CN1CCCNC(=O)C1CCCCC1 [Compound 108],,,0.076 µM,0.954 µM,0.32 µM,73%,90%,
CN(CCN1Cc2cc(C(=O)c3ccccc3)ccc2N=C1N)C(=O)C1CCCCC1 [Compound 23],,,1.1 µM,10 µM,4.9 µM,47%,76%,
